Source: patent US11040028B2, “Penicinotam derivative, preparation method and use thereof” (OCEAN UNIVERSITY OF CHINA, priority 2017, dated 2021)

How the values were obtained:
Format in all cases: cell-based
BHK-21 cells = experiment: Anti-fibrosis activity test: inhibition of BHK-21 cell proliferation (CCK-8); details: Mesocricetus auratus, BHK-21, 48 h
Outline: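 Cells seeded at 2×10^4 cells/mL, allowed to adhere 24 hours, then exposed to graded compound concentrations in triplicate for 48 hours at 37° C, 5% CO2. CCK-8 added for 2 hours, absorbance read at 450 nm; inhibition versus blank control used to derive IC50. Pirfenidone served as positive control.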

[1] = test system: human lung fibroblasts HFL1; experiment: Anti-fibrosis activity test: inhibition of proliferation of human lung fibroblasts HFL1 (CCK-8); details: Homo sapiens, HFL1, 48 h
Outline: (§1)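 Proliferation inhibition is measured by CCK-8 after cells plated at 2×10^4 cells/mL attach overnight (24 h) and then receive test compounds for 48 h at several concentrations, each in triplicate. Optical density at 450 nm gives IR = (1−Ai/Ao)×100%, from which IC50 is computed.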

[2] = test system: human hepatic stellate cells LX-2; experiment: Anti-fibrosis activity test: inhibition of proliferation of human hepatic stellate cells LX-2 (CCK-8); details: Homo sapiens, 48 h
Outline: as §1

[3] = test system: human fibrosarcoma cells HT-1080; experiment: Anti-fibrosis activity test: inhibition of proliferation of human fibrosarcoma cells HT-1080 (CCK-8); details: Homo sapiens, HT-1080, 48 h
Outline: as §1

[4] = test system: human dermal fibroblasts CCC-ESF-1; experiment: Anti-fibrosis activity test: inhibition of proliferation of human dermal fibroblasts CCC-ESF-1 (CCK-8); details: Fibroblast
Outline: as §1

[5] = test system: human embryonic lung fibroblast IMR-90; experiment: Anti-fibrosis activity test: inhibition of proliferation of human embryonic lung fibroblast IMR-90 (CCK-8)
Outline: as §1

[6] = test system: cardiac fibroblast RAT-iCell-C002; experiment: Anti-fibrosis activity test: inhibition of proliferation of cardiac fibroblast RAT-iCell-C002 (CCK-8); details: Cardiac fibroblast, 48 h
Outline: as §1

[7] = test system: mouse macrophages (RAW264.7); experiment: Lipopolysaccharide-induced NO secretion in macrophages (Griess); details: Mus musculus, RAW264.7, 24 h, RAW264.7, LPS 1 μg/ml, a/b isomers given as first/second symbol, read-out: IC50 (μM), inhibition of lipopolysaccharide-induced NO secretion in macrophages
Outline: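 Indomethacin and resveratrol served as positive controls while compounds were tested across concentrations on LPS-stimulated (1 μg/ml, 24 h) RAW264.7 cells. NO output was quantified colorimetrically (Griess, 548 nm).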

[8] = CCK-8, 48 hours after administration
[9] = human lung fibroblasts HFL1, CCK-8, 48 hours
[10] = human hepatic stellate cells LX-2, CCK-8, 48 hours
[11] = human fibrosarcoma cells HT-1080, CCK-8, 48 hours
[12] = human dermal fibroblasts CCC-ESF-1, CCK-8, 48 hours
[13] = human embryonic lung fibroblast IMR-90, CCK-8, 48 hours
[14] = cardiac fibroblast RAT-iCell-C002, CCK-8, 48 hours
[15] = Homo sapiens, CCC-ESF-1 cells, 48 h, CCK-8
[16] = Homo sapiens, IMR-90 cells, 48 h, CCK-8

IC50 [3, 11] [mM]	IC50 [7] [µM]	IC50 ([3]; HT-1080 cells, 48 h, CCK-8) [mM]	Structure (SMILES)	IC50 (BHK-21 cells; [8]) [mM]	IC50 [1, 9] [mM]	IC50 [2, 10] [mM]	IC50 [4, 12] [mM]	IC50 [5, 13] [mM]	IC50 [6, 14] [mM]	IC50 (BHK-21 cells; 48 h, CCK-8) [mM]	IC50 ([1]; HFL1 cells, 48 h, CCK-8) [mM]	IC50 ([2]; LX-2, 48 h, LX-2 cells, CCK-8) [mM]	IC50 [4, 15] [mM]	IC50 [5, 16] [mM]	IC50 ([6]; RAT-iCell-C002 cells, CCK-8) [mM]
	1 to 10	0.05 to 5	O=C1c2c(c(=O)c3ccccc3n2Cc2ccc(-c3ccccc3)cc2)-c2cccn21 [Compound 796a, 6-([1,1′-Biphenyl]-4-ylmethyl)-5H-pyrrolizino[2,1-b]quinoline-5,11(6H)-dione]							0.05 to 5	0.05 to 5	0.05 to 5	0.05 to 5	0.05 to 5	0.05 to 5
	1 to 10	0.05 to 5	Cc1cc2nc3c(c(O)c2cc1C)-c1cccn1C3=O [Compound 781b, 11-hydroxy-8,9-dimethyl-5H-pyrrolizino[2,1-b]quinolin-5-one]							0.05 to 5	0.05 to 5	0.05 to 5	0.05 to 5	0.05 to 5	0.05 to 5
	1 to 10	0.05 to 5	N#Cc1ccccc1-c1ccc(Cn2c3c(c(=O)c4ccccc42)-c2cccn2C3=O)cc1 [Compound 795a, 4′-((5,11-Dioxo-5,11-dihydro-6H-pyrrolizino[2,1-b]quinolin-6-yl)methyl)-[1,1′-biphenyl]-2-carbonitrile]							0.05 to 5	0.05 to 5	0.05 to 5	0.05 to 5	0.05 to 5	0.05 to 5
	1 to 10	0.05 to 5	CCCOCCOc1c2c(nc3ccccc13)C(=O)n1cccc1-2 [Compound 790b, 11-(2-propoxyethoxy)-5H-pyrrolizino[2,1-b]quinolin-5-one]							0.05 to 5	0.05 to 5	0.05 to 5	0.05 to 5	0.05 to 5	0.05 to 5
	1 to 10	< 0.05	O=C1c2c(c(=O)c3ccccc3n2CCN2CCOCC2)-c2cccn21 [Compound 785a, 6-(2-Morpholinoethyl)-5H-pyrrolizino[2,1-b]quinoline-5,11(6H)-dione]							0.05 to 5	0.05 to 5	0.05 to 5	0.05 to 5	0.05 to 5	0.05 to 5
5 to 20	1 to 10		O=C1c2c(n(Cc3ccc(Cl)cc3)c3cc(Cl)ccc3c2=O)-c2cccn21 [Compound 508a, 6-Chloro-4-(4-chlorobenzyl)-9H-pyrrolizino[1,2-b]quinoline-9,10(4H)-dione]	0.05 to 5	0.05 to 5	0.05 to 5	0.05 to 5	0.05 to 5	0.05 to 5						

More lines, now with the values behind:

Structure (SMILES)	IC50 [3, 11] [mM]	IC50 [7] [µM]	IC50 ([3]; HT-1080 cells, 48 h, CCK-8) [mM]	IC50 (BHK-21 cells; [8]) [mM]	IC50 [1, 9] [mM]	IC50 [2, 10] [mM]	IC50 [4, 12] [mM]	IC50 [5, 13] [mM]	IC50 [6, 14] [mM]	IC50 (BHK-21 cells; 48 h, CCK-8) [mM]	IC50 ([1]; HFL1 cells, 48 h, CCK-8) [mM]	IC50 ([2]; LX-2, 48 h, LX-2 cells, CCK-8) [mM]	IC50 [4, 15] [mM]	IC50 [5, 16] [mM]	IC50 ([6]; RAT-iCell-C002 cells, CCK-8) [mM]
O=C1c2c(nc3ccc(F)cc3c2OC2CC2)-c2cccn21 [Compound 144b, 9-cyclopropoxy-7-fluoro-10H-pyrrolizino[1,2-b]quinolin-10-one]	0.05 to 5	1 to 10		0.05 to 5	0.05 to 5	< 0.05	0.05 to 5	0.05 to 5	0.05 to 5						
O=C1c2c(n(-c3ccc(Cl)cc3)c3ccc(C(F)(F)F)cc3c2=O)-c2cccn21 [Compound 276a, 4-(4-Chlorophenyl)-7-(trifluoromethyl)-9H-pyrrolizino[1,2-b]quinoline-9,10(4H)-dione]	0.05 to 5	0.1 to 1		< 0.05	0.05 to 5	0.05 to 5	0.05 to 5	0.05 to 5	5 to 20						
O=C1c2nc3ccccc3c(OCCCCN3CCNCC3)c2-c2cccn21 [Compound 794b, 11-(4-(piperazin-1-yl)butoxy)-5H-pyrrolizino[2,1-b]quinolin-5-one]		1 to 10	0.05 to 5							0.05 to 5	0.05 to 5	0.05 to 5	0.05 to 5	0.05 to 5	0.05 to 5
O=C1c2c(nc3cc(N4CCNCC4)c(Cl)cc3c2O)-c2cccn21 [Compound 373b, 7-chloro-9-hydroxy-6-(piperazin-1-yl)-10H-pyrrolizino[1,2-b]quinolin-10-one]	0.05 to 5	1 to 10		0.05 to 5	0.05 to 5	0.05 to 5	0.05 to 5	0.05 to 5	0.05 to 5						
O=C1c2c(n(Cc3cccc(F)c3)c3cc(F)ccc3c2=O)-c2cccn21 [Compound 491a, 6-Fluoro-4-(3-fluorobenzyl)-9H-pyrrolizino[1,2-b]quinoline-9,10(4H)-dione]	0.05 to 5	10 to 50		< 0.05	0.05 to 5	0.05 to 5	0.05 to 5	0.05 to 5	0.05 to 5						
N#Cc1c(N2CCNCC2)ccc2c(OCc3ccc(F)cc3)c3c(nc12)-c1cccn1C3=O [Compound 482b, 9-((4-fluorobenzyl)oxy)-10-oxo-6-(piperazin-1-yl)-10H-pyrrolizino[1,2-b]quinoline-5-carbonitrile]	< 0.05	1 to 10		0.05 to 5	0.05 to 5	0.05 to 5	0.05 to 5	0.05 to 5	0.05 to 5						
O=C1c2c(nc3c(Cl)cccc3c2OCc2ccc(F)cc2)-c2cccn21 [Compound 481b, 5-chloro-9-((4-fluorobenzyl)oxy)-10H-pyrrolizino[1,2-b]quinolin-10-one]	0.05 to 5	1 to 10		0.05 to 5	0.05 to 5	0.05 to 5	0.05 to 5	0.05 to 5	0.05 to 5						
O=C1c2c(nc3c(F)c(N4CCNCC4)ccc3c2OCc2ccc(F)cc2)-c2cccn21 [Compound 485b, 5-fluoro-9-((4-fluorobenzyl)oxy)-6-(piperazin-1-yl)-10H-pyrrolizino[1,2-b]quinolin-10-one]	0.05 to 5	1 to 10		0.05 to 5	0.05 to 5	0.05 to 5	0.05 to 5	0.05 to 5	0.05 to 5						
CC(C)n1c2c(c(=O)c3cc(F)ccc31)C(=O)n1cccc1-2 [Compound 108a, 7-Fluoro-4-isopropyl-9H-pyrrolizino[1,2-b]quinoline-9,10(4H)-dione]	5 to 20	1 to 10		0.05 to 5	0.05 to 5	0.05 to 5	0.05 to 5	0.05 to 5	0.05 to 5						
O=C1c2c(n(Cc3ccccc3Cl)c3c(C(F)(F)F)cccc3c2=O)-c2cccn21 [Compound 457a, 4-(2-Chlorobenzyl)-5-(trifluoromethyl)-9H-pyrrolizino[1,2-b]quinoline-9,10(4H)-dione]	0.05 to 5	1 to 10		0.05 to 5	0.05 to 5	< 0.05	0.05 to 5	0.05 to 5	0.05 to 5						
O=C1c2c(nc3cccc(C(F)(F)F)c3c2OCc2ccc(Cl)cc2)-c2cccn21 [Compound 465b, 9-((4-chlorobenzyl)oxy)-8-(trifluoromethyl)-10H-pyrrolizino[1,2-b]quinolin-10-one]	0.05 to 5	10 to 50		0.05 to 5	0.05 to 5	0.05 to 5	0.05 to 5	0.05 to 5	0.05 to 5						
O=C1c2c(n(Cc3cccc(Cl)c3)c3c(Cl)cccc3c2=O)-c2cccn21 [Compound 459a, 5-Chloro-4-(3-chlorobenzyl)-9H-pyrrolizino[1,2-b]quinoline-9,10(4H)-dione]	5 to 20	1 to 10		0.05 to 5	0.05 to 5	0.05 to 5	0.05 to 5	0.05 to 5	0.05 to 5						
C=CCn1c2c(c(=O)c3cc(F)ccc31)C(=O)n1cccc1-2 [Compound 109a, 4-Allyl-7-fluoro-9H-pyrrolizino[1,2-b]quinoline-9,10(4H)-dione]	0.05 to 5	0.1 to 1		0.05 to 5	0.05 to 5	0.05 to 5	0.05 to 5	< 0.05	0.05 to 5						
O=C1c2c(nc3cc(N4CCNCC4)c(F)cc3c2OC2CC2)-c2cccn21 [Compound 340b, 9-cyclopropoxy-7-fluoro-6-(piperazin-1-yl)-10H-pyrrolizino[1,2-b]quinolin-10-one]	0.05 to 5	1 to 10		0.05 to 5	0.05 to 5	0.05 to 5	0.05 to 5	0.05 to 5	0.05 to 5						
